Measurements from PMC7109729 (Haematologica, 2020).

Biological target: T1, peroxisome proliferator-activated receptor-γ (PPARγ) (Homo sapiens, UniProt P37231)
T1 sequence (P37231 223-505 limits assumed): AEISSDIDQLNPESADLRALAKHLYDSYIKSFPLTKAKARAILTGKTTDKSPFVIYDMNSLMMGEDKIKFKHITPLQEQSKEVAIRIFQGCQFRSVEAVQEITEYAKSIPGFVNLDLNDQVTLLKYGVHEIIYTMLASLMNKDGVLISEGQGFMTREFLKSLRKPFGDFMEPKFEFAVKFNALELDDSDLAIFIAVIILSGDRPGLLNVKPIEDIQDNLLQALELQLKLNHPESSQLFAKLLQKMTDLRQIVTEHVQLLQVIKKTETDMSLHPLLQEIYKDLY
Assay: SPR
Type: binding

`CC(C)/N=c1\cc2n(-c3ccc(Cl)cc3)c3ccccc3nc-2cc1Nc1ccc(Cl)cc1` [CFZ, clofazimine] was tested, and the Kd was 79 nM.
